Tests used:
[1] = system: anti-HCV antibodies (HCV-positive sera); experiment: ELISA detection of anti-HCV antibodies in HCV-positive sera with adsorbed peptides; assay type: binding, human
Method: The reactivity of these three peptides towards the sera of individuals infected with the hepatitis C virus, termed (HCV) positive, was evaluated in an ELISA test according to the procedure described below.
Detection of anti-HCV Antibodies by ELISA
The wells of a microtiter plate of "NUNC MAXISORB™" trademark are saturated with 100 μl of a solution containing the peptide or a mixture of peptides (10 μg/ml) for 2 hours at 37° C. The plate is then emptied, then washed with a wash buffer containing 0.05% TWEEN™ 20(polysorbate 20). The wells are saturated with 100 μl of wash buffer supplemented with 10% goat serum (v/v), then incubated for 30 minutes at 37° C., then washed again as above. The sera to be analyzed are diluted to the appropriate dilution with saturation buffer. The incubation of the sera is 1 hour at 37° C. The wells are again washed. The solution of conjugate (goat IgG to human IgG labelled with peroxidase) at a dilution of 1/1000 in the saturation buffer is then added and the incubation lasts for 90 minutes at 37° C. After washing, the solution of orthophenylenediamine substrate is added. After 10 minutes, the reaction is stopped with 50 μl of H2 SO4 and the optical density is read at 492 nm. It should be noted that all the tests were carried out in duplicate.
For that, the different peptides are adsorbed on the microplates at a concentration of 10 μg/ml and the sera are used at 1/100 dilution.
The values obtained, which are collated in Table 1 below, correspond to the optical density (OD) multiplied by 10^3, at 492 nm.
For each serum the experiment was carried out in duplicate. The **** are values outside the upper scale.
The different peptides are absorbed onto microplates at a concentration of 10 μg/ml and the sera are used at the dilution stated.
The values obtained, which are collated in Table 2 below, correspond to the optical density at 492 nm. All the experiments were carried out in duplicate.
Each serum was, in a first instance, tested at the dilution 1/100.
The values given correspond to the optical density read at 492 nm multiplied by the factor 10^3.

[2] = system: HCV-positive sera; settings: Nasoff et al., recombinant fusion proteins; cited from earlier work

S32Y: peptide corresponding to the amino acid sequence 2 to 35 of the CORE protein (STNPKPQRKTKRNTNRRPQDVKFPGGGQIVGGVY)
optical density at 492 nm ([1]; Table 4, serum A 8, 1/1000): 1372 OD × 10^3
optical density at 492 nm ([1]; Table 4, serum A 8, 1/10,000): 173 OD × 10^3
optical density at 492 nm ([1]; Table 4, serum A 9, 1/1000): 1941 OD × 10^3
optical density at 492 nm ([1]; Table 4, serum A 9, 1/10,000): 297 OD × 10^3
optical density at 492 nm ([1]; Table 4, serum A 10, 1/1000): 373 OD × 10^3
optical density at 492 nm ([1]; Table 4, serum A 10, 1/10,000): 33 OD × 10^3
optical density at 492 nm ([1]; Table 4, serum A 11, 1/100): 2240 OD × 10^3
optical density at 492 nm ([1]; Table 4, serum A 11, 1/1000): 228 OD × 10^3
optical density at 492 nm ([1]; Table 4, serum A 11, 1/10,000): 36 OD × 10^3
optical density at 492 nm ([1]; Table 4, serum A 12, 1/10,000): 588 OD × 10^3
optical density at 492 nm ([1]; Table 4, serum P 1, 1/100): 703 OD × 10^3
optical density at 492 nm ([1]; Table 4, serum P 2, 1/100): 1177 OD × 10^3
optical density at 492 nm ([1]; Table 4, serum P 3, 1/100): 1576 OD × 10^3
optical density at 492 nm ([1]; Table 4, serum P 4, 1/1000): 2165 OD × 10^3
optical density at 492 nm ([1]; Table 4, serum P 4, 1/10,000): 369 OD × 10^3
optical density at 492 nm ([1]; Table 4, serum P 5, 1/10,000): 1242 OD × 10^3
optical density at 492 nm ([1]; Table 4, serum P 7, 1/10,000): 1932 OD × 10^3
optical density at 492 nm ([1]; Table 4, serum P 8, 1/10,000): 1068 OD × 10^3
optical density at 492 nm ([1]; Table 4, serum P 10, 1/100): 78 OD × 10^3
optical density at 492 nm ([1]; Table 4, serum P 14, 1/10,000): 601 OD × 10^3
optical density at 492 nm ([1]; Table 4, serum P 16, 1/1000): 983 OD × 10^3
optical density at 492 nm ([1]; Table 4, serum P 16, 1/10,000): 124 OD × 10^3
optical density at 492 nm ([1]; Table 4, serum P 23, 1/100): 157 OD × 10^3
optical density at 492 nm ([1]; Table 4, serum P 24, 1/100): 1214 OD × 10^3
optical density at 492 nm ([1]; Table 4, serum P 29, 1/100): 400 OD × 10^3

glutathione S-transferase
reactivity towards HCV-positive sera [2]: none of the sera tested reacts

— patent US6235284A, “Synthetic polypeptides belonging to the hepatitis C virus (HCV) and which can be used especially for detecting the latter” (Bio Merieux, priority 1992, dated 2001)
